Measurements: US11492348B2, “Tri-substituted aryl and heteroaryl derivatives as modulators of PI3-kinase and autophagy pathways” (Neuropore Therapies, Inc., priority 2018, dated 2022)

How the values were obtained:
PI3Kα = PI3Kα (Homo sapiens (Human), UniProt P42336); assay: Inhibition of PI3Kα (ADP-Glo kinase activity assay, ATP to ADP conversion); assay type: biochemical; settings: 25 μM PIP2:PS, 60 μM ATP, 30 min reaction, luminescence
Summary of the method: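 Recombinant active PI3Kα (1.1 nM) in HEPES pH 7.5 buffer with 6 mM MgCl2 and 8 mM DTT was preincubated with compound for 0 or 3 h. The reaction ran for 30 min with 25 µM PIP2:PS and 60 µM ATP, and ADP formation was read by ADP-Glo luminescence. IC50 came from a 12-point, 1:3 series fitted with a 4-parameter model, bottom fixed to reference inhibitor controls and top floating.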

mTor kinase = mTor kinase (Homo sapiens (Human), UniProt P42345); assay: mTor assay (33P-ATP filter-binding kinase assay); assay type: biochemical; settings: 2 hours at room temperature
Protocol: The substrate was prepared in base reaction buffer (20 mM Hepes (pH 7.5), 10 mM MgCl2, 1 mM EGTA, 0.02% Brij35, 0.02 mg/ml BSA, 0.1 mM Na3VO4, 2 mM DTT, 1% DMSO), and required cofactors were added to the substrate solution. The mTor kinase was delivered into the substrate solution, and the solution was gently mixed. Testing compounds were dissolved in 100% DMSO to specific concentration. The serial dilution was conducted by Integra Viaflo Assist in DMSO. The compounds were delivered into the kinase reaction mixture by Acoustic technology (Echo550; nanoliter range), and the reaction mixture was incubated for 20 min at room temperature. Then, 33P-ATP (Specific activity 10 μCi/μl) was delivered into the reaction mixture to initiate the reaction. The reaction mixture was incubated for 2 hours at room temperature. Radioactivity was detected by a filter-binding method. Kinase activity data were expressed as the percent remaining kinase activity in test samples compared to vehicle (dimethyl sulfoxide) reactions. IC50 values and curve fits were obtained using Prism (GraphPad Software).

[1] = tested on: (Ser-473) pAKT in B103 (Rat Neuroblastoma) cells; assay: pAKT protocol: loss of (Ser-473) pAKT by AlphaScreen in insulin-stimulated B103 cells; assay type: cell-based; settings: (Ser-473) pAKT/total AKT IC50, 2-hour pretreatment, 2.5 μg/mL insulin 20 minutes
Summary of the method: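 Rat neuroblastoma B103 cells, serum-starved 6 h, were pretreated 2 h with inhibitors (6-point 1:3 series, 0.5% DMSO) before insulin stimulation. Lysate Ser-473 pAKT and total AKT measured by AlphaScreen; pAKT/total AKT ratio fitted to 4-parameter curve, bottom constrained to reference control, top anchored to DMSO.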

Chain of PI3Kα (P42336 whole entry): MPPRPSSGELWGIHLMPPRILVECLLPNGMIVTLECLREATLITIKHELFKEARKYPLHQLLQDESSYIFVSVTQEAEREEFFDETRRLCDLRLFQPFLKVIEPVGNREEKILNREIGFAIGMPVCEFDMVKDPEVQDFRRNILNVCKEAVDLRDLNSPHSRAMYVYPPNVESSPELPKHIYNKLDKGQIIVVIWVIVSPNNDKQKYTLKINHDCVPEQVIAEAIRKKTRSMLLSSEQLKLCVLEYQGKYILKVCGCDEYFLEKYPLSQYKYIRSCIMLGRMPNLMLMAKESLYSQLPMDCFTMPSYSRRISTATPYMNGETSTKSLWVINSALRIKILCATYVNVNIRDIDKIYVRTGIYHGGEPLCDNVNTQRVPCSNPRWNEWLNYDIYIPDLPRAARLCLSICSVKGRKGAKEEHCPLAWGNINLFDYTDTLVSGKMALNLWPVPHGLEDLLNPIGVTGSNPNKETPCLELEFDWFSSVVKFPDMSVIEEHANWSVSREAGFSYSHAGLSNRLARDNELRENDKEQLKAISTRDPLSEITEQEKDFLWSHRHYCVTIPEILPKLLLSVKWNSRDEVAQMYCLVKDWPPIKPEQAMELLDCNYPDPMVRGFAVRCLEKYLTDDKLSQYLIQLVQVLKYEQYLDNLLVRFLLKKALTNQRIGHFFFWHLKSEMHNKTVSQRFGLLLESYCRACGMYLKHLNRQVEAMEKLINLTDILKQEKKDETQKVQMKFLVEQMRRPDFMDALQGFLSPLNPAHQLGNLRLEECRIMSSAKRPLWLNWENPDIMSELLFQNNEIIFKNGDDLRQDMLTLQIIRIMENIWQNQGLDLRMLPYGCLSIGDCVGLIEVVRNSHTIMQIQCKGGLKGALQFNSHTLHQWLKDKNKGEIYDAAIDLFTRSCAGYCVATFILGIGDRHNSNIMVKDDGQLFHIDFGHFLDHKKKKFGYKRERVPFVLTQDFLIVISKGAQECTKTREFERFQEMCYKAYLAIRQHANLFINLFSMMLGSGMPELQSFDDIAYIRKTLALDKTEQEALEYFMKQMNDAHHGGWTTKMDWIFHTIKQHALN
Chain of PI3Kα (P27986 whole entry partner): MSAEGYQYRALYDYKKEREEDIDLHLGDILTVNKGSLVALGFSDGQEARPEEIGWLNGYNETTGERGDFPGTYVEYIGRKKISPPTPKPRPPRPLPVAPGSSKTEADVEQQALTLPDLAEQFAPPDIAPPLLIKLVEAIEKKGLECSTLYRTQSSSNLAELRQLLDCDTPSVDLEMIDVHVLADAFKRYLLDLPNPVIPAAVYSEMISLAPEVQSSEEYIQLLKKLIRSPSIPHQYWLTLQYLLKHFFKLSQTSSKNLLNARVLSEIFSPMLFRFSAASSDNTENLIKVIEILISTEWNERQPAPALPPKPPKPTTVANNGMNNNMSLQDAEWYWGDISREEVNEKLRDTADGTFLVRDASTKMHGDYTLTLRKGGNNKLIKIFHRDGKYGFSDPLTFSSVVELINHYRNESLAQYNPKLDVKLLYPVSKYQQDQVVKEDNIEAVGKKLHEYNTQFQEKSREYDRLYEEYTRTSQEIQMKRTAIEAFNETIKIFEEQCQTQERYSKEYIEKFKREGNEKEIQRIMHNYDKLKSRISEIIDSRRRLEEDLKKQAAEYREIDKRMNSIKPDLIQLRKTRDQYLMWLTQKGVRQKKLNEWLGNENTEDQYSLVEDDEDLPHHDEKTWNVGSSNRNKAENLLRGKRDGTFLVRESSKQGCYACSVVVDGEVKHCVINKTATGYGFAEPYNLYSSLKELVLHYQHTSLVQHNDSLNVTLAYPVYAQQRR

Nc1ncc(-c2cc(Oc3ccccc3OC(F)(F)F)cc(N3CCOCC3)n2)cn1 [Compound 136, 5-(6-morpholino-4-(2-(trifluoromethoxy)phenoxy)pyridin-2-yl)pyrimidin-2-amine] was tested, and the “PI3Ka IC50” value (PI3Kα) was 0.37 µM, the IC50 (mTor kinase) was 2.06 µM and the IC50 [1] was 1.51 µM.

Nc1ncc(-c2cc(OC3CCOC3)cc(N3CCOCC3)n2)cn1 (stereo not drawn) [Compound 130, 5-(6-morpholino-4-((tetrahydrofuran-3-yl)oxy)pyridin-2-yl)pyrimidin-2-amine] was tested, and the “PI3Ka IC50” value (PI3Kα) was 0.023 µM, the IC50 (mTor kinase) was 1.75 µM and the IC50 [1] was 0.75 µM.

In the case of N#Cc1ccc(S(=O)(=O)c2cc(-c3cnc(N)cc3C(F)(F)F)cc(N3CCOCC3)c2)cc1 [Compound 18, 4-((3-(6-amino-4-(trifluoromethyl)pyridin-3-yl)-5-morpholinophenyl)sulfonyl)benzonitrile], the “PI3Ka IC50” value (PI3Kα) is reported as 3.9 µM, the IC50 (mTor kinase) is reported as 100 µM and the IC50 [1] is reported as 100 µM.

For COc1ccccc1Oc1cc(-c2cnc(N)nc2)nc(N2CCOCC2)c1 [Compound 135, 5-(4-(2-methoxyphenoxy)-6-morpholinopyridin-2-yl)pyrimidin-2-amine], the “PI3Ka IC50” value (PI3Kα) was 0.079 µM, the IC50 (mTor kinase) was 0.7 µM and the IC50 [1] was 1.62 µM.

In the case of O=S(=O)(Cc1ccccc1)c1cc(-c2cnc(NCCO)nc2)cc(N2CCOCC2)c1 [Compound 35, 2-((5-(3-(benzylsulfonyl)-5-morpholinophenyl)pyrimidin-2-yl)amino)ethan-1-ol], the “PI3Ka IC50” value (PI3Kα) is reported as 1.1 µM, the IC50 (mTor kinase) is reported as 12.2 µM and the IC50 [1] is reported as 23.5 µM.

O=S(=O)(Cc1ccc(F)cc1)c1cc(-c2cccc(O)c2)cc(N2CCOCC2)c1 [Compound 41, 3′-((4-fluorobenzyl)sulfonyl)-5′-morpholino-[1,1′-biphenyl]-3-ol] was tested, and the “PI3Ka IC50” value (PI3Kα) was 0.53 µM, the IC50 (mTor kinase) was 4.27 µM and the IC50 [1] was 0.86 µM.

For Nc1ncc(-c2cc(N3CCOCC3)cc(S(=O)(=O)C3COc4ccccc43)c2)cn1 (stereo not drawn) [Compound 119, 5-(3-((2,3-dihydrobenzofuran-3-yl)sulfonyl)-5-morpholinophenyl)pyrimidin-2-amine], the “PI3Ka IC50” value (PI3Kα) was 0.11 µM, the IC50 (mTor kinase) was 4.7 µM and the IC50 [1] was 4 µM.

N#Cc1ccc(S(=O)(=O)c2cc(-c3cnc(N)nc3C(F)(F)F)cc(N3CCOCC3)c2)cc1 [Compound 17, 4-((3-(2-amino-4-(trifluoromethyl)pyrimidin-5-yl)-5-morpholinophenyl)sulfonyl)benzonitrile] was tested, and the “PI3Ka IC50” value (PI3Kα) was 1.9 µM, the IC50 (mTor kinase) was 100 µM and the IC50 [1] was 100 µM.

With Nc1ncc(-c2cc(N3CCOCC3)cc(S(=O)(=O)c3cccc4ccoc34)c2)cn1 [Compound 110, 5-(3-(benzofuran-7-ylsulfonyl)-5-morpholinophenyl)pyrimidin-2-amine] the “PI3Ka IC50” value (PI3Kα) was 0.40 µM, the IC50 (mTor kinase) was 9.9 µM and the IC50 [1] was 8.7 µM.

Nc1ncc(-c2cc(N3CCOCC3)cc(S(=O)(=O)CC3CCOC3)c2)cn1 (stereo not drawn) [Compound 38, 5-(3-morpholino-5-(((tetrahydrofuran-3-yl)methyl)sulfonyl)phenyl)pyrimidin-2-amine] was tested, and the “PI3Ka IC50” value (PI3Kα) was 0.74 µM, the IC50 (mTor kinase) was 3.6 µM and the IC50 [1] was 9.11 µM.

Nc1ncc(-c2cc(S(=O)(=O)c3ccccc3)cc(N3CCOCC3)n2)cn1 [Compound 115, 5-(6-morpholino-4-(phenylsulfonyl)pyridin-2-yl)pyrimidin-2-amine] was tested, and the “PI3Ka IC50” value (PI3Kα) was 0.066 µM, the IC50 (mTor kinase) was 0.063 µM and the IC50 [1] was 0.57 µM.

In the case of Nc1ncc(-c2cc(N3CCOCC3)cc(S(=O)(=O)Cc3ccc(F)cc3)c2)cn1 [Compound 29, 5-(3-((4-fluorobenzyl)sulfonyl)-5-morpholinophenyl)pyrimidin-2-amine], the “PI3Ka IC50” value (PI3Kα) is reported as 0.37 µM, the IC50 (mTor kinase) is reported as 10.9 µM and the IC50 [1] is reported as 10.9 µM.

In the case of N#Cc1ccc(S(=O)(=O)c2cc(-c3cnc(N)nc3)cc(N3CCOCC3)c2)cc1 [Compound 10, 4-((3-(2-aminopyrimidin-5-yl)-5-morpholinophenyl)sulfonyl)benzonitrile], the “PI3Ka IC50” value (PI3Kα) is reported as 0.46 µM, the IC50 (mTor kinase) is reported as 0.64 µM and the IC50 [1] is reported as 30.7 µM.
